Patent publication US20050096323A1, “Diketopiperazine derivatives to inhibit thrombin” (NovoScience Pharma Inc., priority 1999, published 2005)
Counter-ions that a name gives are not always drawn.

What was measured:
[1] = molecular target: T1, trypsin (Bos taurus, UniProt P00760); test: Trypsin inhibition constant (Ki), fluorogenic substrate assay; format: biochemical
T1 sequence (P00760 24-246): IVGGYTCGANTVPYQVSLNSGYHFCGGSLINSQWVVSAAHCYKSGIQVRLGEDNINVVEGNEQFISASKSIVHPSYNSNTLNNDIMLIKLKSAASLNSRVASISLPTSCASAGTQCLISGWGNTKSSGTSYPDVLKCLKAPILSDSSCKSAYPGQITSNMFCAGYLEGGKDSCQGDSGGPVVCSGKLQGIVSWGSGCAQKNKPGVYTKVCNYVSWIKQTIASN
Procedure: (§1) The activity and selectivity of the present invention can be identified by determination of the inhibition constant (Ki) for serine proteases such thrombin and trypsin and fibrinolytic enzymes such as urokinase, plasmin and tissue plasminogen activator (tPA). All of enzymes are purchased from Sigma. The general assay conditions are as follows. The fluorogenic substrates are dissolved in DMSO and diluted using assay buffer containing 50 mM Tris.HCl (pH 7.8 at 25° C.), 0.1 M NaCl and 0.1% polyethylene glycol 8000 (PEG 8000). […] The assays were conducted using Hitachi F2500 spectrophotometer under ambient temperature and at the excitation and emission wavelengths of 383 nm and 455 nm, respectively. The typical progressive data of the enzymatic assays are shown in FIGS. 1-3, and the determination of inhibition constant (Ki) is shown in FIG. 4.

[2] = molecular target: T2, urokinase (Homo sapiens, UniProt P00749); test: Urokinase inhibition constant (Ki), fluorogenic substrate assay; format: biochemical
T2 construct: purchased Sigma
Procedure: as §1

[3] = Acute toxicity, intravenous injection, determination of LD50; format: in vivo, mice; conditions: both sexes, ICR, mouse, in vivo, iv, ICR mice, single i.v., Bliss method
Source text: (§2) 1) Determination of LD50 (Tables III and IV): ICR mice, 18 ˜20 g, were divided into five groups, with 10 animals in each group (half male and half female). The ratio of doses between groups was 1:0.85.

[4] = test system: ICR mice; test: as above; format: in vivo; conditions: for Number of deaths: 10 mice
Source text: as §2

[5] = test system: ICR mice; test: Acute toxicity, oral gavage, determination of the maximal dose; format: in vivo
Source text: The dose is based on maximal dissolution rate and maximal administered volume of the drug.

[6] = test system: ICR mice; test: Clotting time (CT) of mice whole blood after administration; format: in vivo
Procedure: Blood samples were collected using the capillary method 0.5 h and 1.5 h after i.v. injections and 1 h and 3 h after i.g. and clotting time of whole blood was measured.

SMILES: CC1CNc2c(cccc2S(=O)(=O)N2C(=O)C3CC(C)CCN3C(=O)C2CCCNC(=N)N)C1 [NPI1999, (3S,6R,8R)-Bicyclo[4.4.0]-1,4-diaza-3-(3-guanidinopropyl)-4-N-(1,2,3,4-tetrahydro-3-methyl-8-quinolinesulfonyl)-8-methyl-2,5-decanedione, hydrochoride salt]
- Cycloargatroban [Ki (Enzyme)/Ki (Thrombin)] vs. Argatroban [Ki (Enzyme)/Ki (Thrombin)] ([1]; listed as Cycloargatroban): +12 fold
- Cycloargatroban [Ki (Enzyme)/Ki (Thrombin)] vs. Argatroban [Ki (Enzyme)/Ki (Thrombin)] ([1]; listed as cycloargatroban): 12 fold
- Cycloargatroban [Ki (Enzyme)/Ki (Thrombin)] vs. Argatroban [Ki (Enzyme)/Ki (Thrombin)] ([2]; enzyme = urokinase): −0.14 fold
- Ki ([2]; substrate N-Cbz-Gly-Gly-Arg-AMC): 295 µM
- 95% confidence interval of LD50 at 2 weeks [3]: 10 to 11.9 mg/kg
- LD50 at 2 weeks ([3]; observed 2 weeks): 10.9 mg/kg
- Death rate (%) ([4]; i.v. 7.83 mg/kg): 0%
- Number of deaths ([4]; i.v. 7.83 mg/kg): 0
- Number of death ([4]; i.v. 7.83 mg/kg, ♀, 4-13 days after administration): 0
- Number of death ([4]; i.v. 7.83 mg/kg, ♀, 1 day after administration): 0
- Number of death ([4]; i.v. 7.83 mg/kg, ♀, 2 days after administration): 0
- Number of death ([4]; i.v. 7.83 mg/kg, ♀, 3 days after administration): 0
- Number of death ([4]; i.v. 7.83 mg/kg, ♀, day of administration): 0
- Number of death ([4]; i.v. 7.83 mg/kg, ♂, 4-13 days after administration): 0
- Number of death ([4]; i.v. 7.83 mg/kg, ♂, 1 day after administration): 0
- Number of death ([4]; i.v. 7.83 mg/kg, ♂, 2 days after administration): 0
- Number of death ([4]; i.v. 7.83 mg/kg, ♂, 3 days after administration): 0
- Number of death ([4]; i.v. 7.83 mg/kg, ♂, day of administration): 0
- Death rate (%) ([4]; i.v. 9.21 mg/kg): 30%
- Number of deaths ([4]; i.v. 9.21 mg/kg): 3
- Number of death ([4]; i.v. 9.21 mg/kg, ♀, 4-13 days after administration): 0
- Number of death ([4]; i.v. 9.21 mg/kg, ♀, 1 day after administration): 0
- Number of death ([4]; i.v. 9.21 mg/kg, ♀, 2 days after administration): 0
- Number of death ([4]; i.v. 9.21 mg/kg, ♀, 3 days after administration): 0
- Number of death ([4]; i.v. 9.21 mg/kg, ♀, day of administration): 2
- Number of death ([4]; i.v. 9.21 mg/kg, ♂, 4-13 days after administration): 0
- Number of death ([4]; i.v. 9.21 mg/kg, ♂, 1 day after administration): 0
- Number of death ([4]; i.v. 9.21 mg/kg, ♂, 2 days after administration): 0
- Number of death ([4]; i.v. 9.21 mg/kg, ♂, 3 days after administration): 0
- Number of death ([4]; i.v. 9.21 mg/kg, ♂, day of administration): 1
- Death rate (%) ([4]; i.v. 10.84 mg/kg): 50%
- Number of deaths ([4]; i.v. 10.84 mg/kg): 5
- Number of death ([4]; i.v. 10.84 mg/kg, ♀, 4-13 days after administration): 0
- Number of death ([4]; i.v. 10.84 mg/kg, ♀, 1 day after administration): 0
- Number of death ([4]; i.v. 10.84 mg/kg, ♀, 2 days after administration): 0
- Number of death ([4]; i.v. 10.84 mg/kg, ♀, 3 days after administration): 0
- Number of death ([4]; i.v. 10.84 mg/kg, ♀, day of administration): 3
- Number of death ([4]; i.v. 10.84 mg/kg, ♂, 4-13 days after administration): 0
- Number of death ([4]; i.v. 10.84 mg/kg, ♂, 1 day after administration): 0
- Number of death ([4]; i.v. 10.84 mg/kg, ♂, 2 days after administration): 0
- Number of death ([4]; i.v. 10.84 mg/kg, ♂, 3 days after administration): 0
- Number of death ([4]; i.v. 10.84 mg/kg, ♂, day of administration): 2
- Death rate (%) ([4]; i.v. 12.75 mg/kg): 80%
- Number of deaths ([4]; i.v. 12.75 mg/kg): 8
- Number of death ([4]; i.v. 12.75 mg/kg, ♀, 4-13 days after administration): 0
- Number of death ([4]; i.v. 12.75 mg/kg, ♀, 1 day after administration): 0
- Number of death ([4]; i.v. 12.75 mg/kg, ♀, 2 days after administration): 0
- Number of death ([4]; i.v. 12.75 mg/kg, ♀, 3 days after administration): 0
- Number of death ([4]; i.v. 12.75 mg/kg, ♀, day of administration): 4
- Number of death ([4]; i.v. 12.75 mg/kg, ♂, 4-13 days after administration): 0
- Number of death ([4]; i.v. 12.75 mg/kg, ♂, 1 day after administration): 0
- Number of death ([4]; i.v. 12.75 mg/kg, ♂, 2 days after administration): 0
- Number of death ([4]; i.v. 12.75 mg/kg, ♂, 3 days after administration): 0
- Number of death ([4]; i.v. 12.75 mg/kg, ♂, day of administration): 4
- Death rate (%) ([4]; i.v. 15.00 mg/kg): 90%
- Number of deaths ([4]; i.v. 15.00 mg/kg): 9
- Number of death ([4]; i.v. 15.00 mg/kg, ♀, 4-13 days after administration): 0
- Number of death ([4]; i.v. 15.00 mg/kg, ♀, 1 day after administration): 0
- Number of death ([4]; i.v. 15.00 mg/kg, ♀, 2 days after administration): 0
- Number of death ([4]; i.v. 15.00 mg/kg, ♀, 3 days after administration): 0
- Number of death ([4]; i.v. 15.00 mg/kg, ♀, day of administration): 4
- Number of death ([4]; i.v. 15.00 mg/kg, ♂, 4-13 days after administration): 0
- Number of death ([4]; i.v. 15.00 mg/kg, ♂, 1 day after administration): 0
- Number of death ([4]; i.v. 15.00 mg/kg, ♂, 2 days after administration): 0
- Number of death ([4]; i.v. 15.00 mg/kg, ♂, 3 days after administration): 0
- Number of death ([4]; i.v. 15.00 mg/kg, ♂, day of administration): 5
- Maximal dose of oral gavage ([5]; ICR mice, i.g.): 2860 mg/kg
- maximal dose of i.g. ([5]; ICR mice, i.g.): 2.86 g/kg/day
- mortality ([5]; i.g. 1.43 g/kg twice, up to one week): No mortality was observed
- CT (clotting time of whole blood) ([6]; 0.25 mg/kg i.v. group, before administration): 128.53 ± 27.14
- CT (clotting time of whole blood) ([6]; 0.25 mg/kg i.v., 0.5 h): 140.02 ± 26.40
- CT (clotting time of whole blood) ([6]; 0.25 mg/kg i.v., 1.5 h): 139.88 ± 30.40
- CT (clotting time of whole blood) ([6]; 0.5 mg/kg i.v. group, before administration): 125.53 ± 25.03
- CT (clotting time of whole blood) ([6]; 0.5 mg/kg i.v., 0.5 h): 172.88 ± 34.26
- CT (clotting time of whole blood) ([6]; 0.5 mg/kg i.v., 1.5 h): 161.76 ± 40.10
- CT (clotting time of whole blood) ([6]; 1 mg/kg i.v. group, before administration): 124.06 ± 28.96
- CT (clotting time of whole blood) ([6]; 1 mg/kg i.v., 0.5 h): 165.12 ± 30.57
- CT (clotting time of whole blood) ([6]; 1 mg/kg i.v., 1.5 h): 163.62 ± 44.26
- CT (clotting time of whole blood) ([6]; 75 mg/kg i.g. group, before administration): 126.11 ± 22.83
- CT (clotting time of whole blood) ([6]; 75 mg/kg i.g., 1 h): 133.11 ± 29.00
- CT (clotting time of whole blood) ([6]; 75 mg/kg i.g., 3.0 h): 119.39 ± 25.88
- CT (clotting time of whole blood) ([6]; 150 mg/kg i.g. group, before administration): 125.50 ± 23.67
- CT (clotting time of whole blood) ([6]; 150 mg/kg i.g., 1 h): 128.06 ± 30.03
- CT (clotting time of whole blood) ([6]; 150 mg/kg i.g., 3.0 h): 119.44 ± 26.01
- clotting time compared to controls ([6]; i.g. 75 mg/kg and 150 mg/kg, 1 h and 3 h): No significant difference
- clotting time compared to controls ([6]; i.v. 0.5 mg/kg and 1 mg/kg, 0.5 h and 1.5 h): significantly prolonged
